# Results from PMC6201084 (Antimicrobial Agents and Chemotherapy, 2018).
# Like-named read-outs stand apart in the source and are kept apart here.
# Tests used:
# [1] = biological target: neuraminidase (NA) of influenza B/England/598/2014 (WT-H273) (Influenza B virus, UniProt A0A1S5RAG6); assay type: biochemical
# [2] = biological target: neuraminidase (NA) of influenza B/Minnesota/23/2015 (WT-D197) (Influenza B virus, UniProt A0A1S5RAG6); assay type: biochemical; conditions: three independent experiments, read-out: IC50 (nM), mean ± SD
# Chain of neuraminidase (NA) of influenza B/Minnesota/23/2015 (WT-D197) (A0A1S5RAG6 entry or part of it, added parts left off): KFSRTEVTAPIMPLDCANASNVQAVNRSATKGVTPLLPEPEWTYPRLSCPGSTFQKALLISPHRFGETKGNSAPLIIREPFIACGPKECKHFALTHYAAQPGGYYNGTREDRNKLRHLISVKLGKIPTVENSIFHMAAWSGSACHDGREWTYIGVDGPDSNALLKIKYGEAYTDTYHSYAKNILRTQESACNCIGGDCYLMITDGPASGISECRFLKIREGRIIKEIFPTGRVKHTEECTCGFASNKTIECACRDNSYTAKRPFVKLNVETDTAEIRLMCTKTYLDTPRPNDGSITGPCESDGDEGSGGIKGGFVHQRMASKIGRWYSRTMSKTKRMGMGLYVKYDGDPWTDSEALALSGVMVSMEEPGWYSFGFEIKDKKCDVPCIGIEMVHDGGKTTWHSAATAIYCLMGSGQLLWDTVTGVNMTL
# Chain of neuraminidase (NA) of influenza B/England/598/2014 (WT-H273) (A0A1S5RAG6 entry or part of it, added parts left off): as above
structure (smiles),measurement,setting,value
"CCC(CC)[C@H](NC(C)=O)[C@@H]1[C@H](O)[C@@H](C(=O)O)C[C@H]1N=C(N)N [Peramivir, peramivir]",IC50,"[1]; WT-H273 virus, three independent experiments, read-out: IC50 (nM), mean ± SD",1 ± 0.05 nM
same,IC50,"[1]; approximate value given in discussion for wild-type influenza B viruses, read-out: IC50 for wild-type influenza B viruses",~1 nM
same,IC50,[2],1 ± 0.1 nM
